The test system of one assay is vasopressin V2. Nature of the assay: Vasopressin V2 Antagonist Activity in Conscious Hydrated Rats. Type of assay: in vivo, rat. As to conditions: oral 10 mg/kg, N=2, AVP challenge. The protocol: Vasopressin V2 Antagonist Activity in Conscious Hydrated Rats Conscious hydrated rats are treated with compounds under study from 0.1 to 100 mg/kg orally or vehicle. Two to four rats are used for each compound. One hour later, arginine vasopressin (AVP, antidiuretic Hormone, ADH) dissolved in peanut oil is administered at […] intraperitoneally. Two rats in each test would not receive arginine vasopressin but only the vehicle (peanut oil) to serve as water-loading control. Twenty minutes later each rat is given 30 mL/kg of deionized water orally by gavage and is placed individually in a metabolic cage equipped with a funnel and a graduated glass cylinder to collect urine for four hours. Urine volume is measure and osmolality analyzed by use of a Fiske One-Ten osmometer (Fiske Assoc., Norwood, Mass., USA). Urinary sodium, potassium, and chloride are analyzed by use of ion-specific electrodes in a Beckman E3 (Electrolye 3) Analyzer. In the following results, […] and decreased osmolality relative to AVP-control indicates activity.

The target in assay [1] is T1, oxytocin receptor (rat uteri) (Rattus norvegicus, UniProt P70536).
T1 construct: The uteri are dissected out, cleaned of fat and connective tissues; from tissue; host or cells: uteri of diethylstilbestrol-treated female Sprague-Dawley rats
T1 sequence (P70536 1-388): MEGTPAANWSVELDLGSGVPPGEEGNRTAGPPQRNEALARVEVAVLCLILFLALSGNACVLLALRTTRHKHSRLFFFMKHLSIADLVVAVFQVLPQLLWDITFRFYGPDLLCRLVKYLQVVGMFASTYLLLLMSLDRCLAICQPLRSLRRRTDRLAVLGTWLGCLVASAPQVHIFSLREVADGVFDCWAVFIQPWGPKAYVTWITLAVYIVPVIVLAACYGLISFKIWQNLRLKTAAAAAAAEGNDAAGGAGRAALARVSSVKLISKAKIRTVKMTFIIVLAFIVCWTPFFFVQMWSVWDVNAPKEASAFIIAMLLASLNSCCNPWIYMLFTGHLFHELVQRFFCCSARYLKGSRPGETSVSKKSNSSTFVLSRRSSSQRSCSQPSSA
Nature of the assay: Oxytocin Receptor Binding. More on the design: species or system rat (Sprague-Dawley). Particulars: for IC50: [3H]oxytocin displacement. As for the experimental part: Oxytocin Receptor Binding
Female Sprague-Dawley rats weighing approximately 200-250 g are injected intramuscularly (i.m.) with 0.3 mg/kg of body weight of diethylstilbestrol (DES). The rats are sacrificed 18 hours later under pentobarbital anesthesia. The uteri are dissected out, cleaned of fat and connective tissues and rinsed in 50 ml of normal saline. The tissue pooled from six rats is homogenized in 50 ml of […] Tris. HCl, containing 0.5 mM dithiothreitol and 1.0 mM EDTA, adjusted to pH 7.4, using a polytron at setting 6 with three passes of 10 sec each. The homogenate is passed through two (2) layers of cheesecloth and the filtrate centrifuged at 1000×g for 10 minutes. The clear supernatant is removed and recentrifuged at 165,000×g for 30 minutes. The resulting pellet containing the oxytocin receptors is resuspended in 50.0 mM Tris.HCl containing 5.0 mM MgCl2 at pH 7.4, to give a protein concentration of 2.5 mg/ml of tissue suspension. This preparation is used in subsequent binding assays with [^3 H]oxytocin.
Binding of 3,5-[^3 H]Oxytocin ([^3 H]OT) to its receptors is done in microtiter plates using [^3 H]OT, at various concentrations, in an assay buffer of 50.0 mM Tris.HCI, pH 7.4 and containing 5.0 mM MgCl2, and a mixture of protease inhibitors: BSA, 0.1 mg; aprotinin, 1.0 mg; 1,10-phenanthroline, 2.0 mg; […], 10.0 mg; and PMSF, 0.3 mg per 100 ml of buffer solution. Non-specific binding is determined in the presence of 1.0 uM unlabeled OT. The binding reaction is terminated after 60 minutes, at 22° C., by rapid filtration through glass fiber filters using a Brandel® cell harvester (Biomedical Research and Development Laboratories, Inc., Gaithersburg, Md.). Competition experiments are conducted at equilibrium using 1.0 nM [^3 H]OT and varying the concentration of the displacing agents. The concentrations of agent displacing 50% of [^3 H]OT at its sites (IC50) are calculated by a computer assisted LUNDON-2 program (LUNDON SOFTWARE INC., Ohio, USA).

These results are taken from patent US5849735A, “Tricyclic benzazepine vasopressin antagonists” (American Cyanamid Company, priority 1995, dated 1998).

Take `Cc1ccc(F)cc1C(=O)Nc1ccc(C(=O)N2Cc3sccc3Cc3ccccc32)cn1` [Example 2, N-[5-[(9,10-Dihydro-4H-thieno[2,3-c][1]benzazepin-9-yl)carbonyl]-2-pyridinyl]-5-fluoro-2-methylbenzamide]: in the assay on vasopressin V2, the Osmolality amounted to 591 MOsm/kg and the “Urine Volume” value came out at 16.5 ml/4 hrs. In assay [1], this compound returned an IC50 of 1.1 µM and an inhibition at 10 µM of 86%.
As to `Cc1ccc(F)cc1C(=O)Nc1ccc(C(=O)N2Cc3ccccc3Oc3ncccc32)cn1` [Example 4, N-[5-(Pyrido[2,3-b][1,4]benzoxazepin-5(6H)-ylcarbonyl)-2-pyridinyl]-5-fluoro-2-methylbenzamide], in the assay with vasopressin V2, the Osmolality is 878 MOsm/kg and the “Urine Volume” value is recorded as 6.8 ml/4 hrs. The inhibition at 10 µM in assay [1] stood at 20%.
On to `CCCCOc1ccc(C(=O)N2Cc3ccccc3Cc3ccccc32)cc1` [Example 24], for which, in the assay with vasopressin V2, the Osmolality was found to be 1492 MOsm/kg and the “Urine Volume” value turned out to be 4.3 ml/4 hrs. In assay [1], this compound had a half-maximal inhibitory concentration (IC50) of 1.8 µM and an inhibition at 10 µM of 97%.
As for `O=C(c1ccc(-c2ccccc2)cc1)N1Cc2ccccc2Oc2ccccc21` [Example 26, 10-([1,1'-Biphenyl]-4-ylcarbonyl)-10,11-dihydrodibenz[b,f][1,4]oxazepine], in the assay with vasopressin V2, the Osmolality is recorded as 1058 MOsm/kg and the “Urine Volume” value was determined as 4.5 ml/4 hrs. Moreover, in assay [1], the IC50 is 2.5 µM and the inhibition at 10 µM stood at 73%.
For `O=C(c1ccc(-c2ccccc2)cc1)N1Cc2sccc2Cc2ccccc21` [Example 27, 9-([1,1'-Biphenyl]-4-ylcarbonyl)-9,10-dihydro-4H-thieno[2,3-c][1]benzazepine], in the assay on vasopressin V2, the Osmolality turned out to be 1317 MOsm/kg and the “Urine Volume” value is recorded as 3.3 ml/4 hrs. For the same compound, 1 µM produced 83% inhibition in assay [1].
Regarding `O=C(c1ccccc1)c1ccc(C(=O)N2Cc3ccccc3Oc3ccccc32)cc1` [Example 32, 10-(4-Benzoylbenzoyl)-10,11-dihydrodibenz[b,f][1,4]oxazepine], in the assay with vasopressin V2, the Osmolality is 726 MOsm/kg and the “Urine Volume” value is reported as 9.3 ml/4 hrs. In addition, in assay [1], the IC50 was 1.8 µM and the inhibition at 10 µM came to 88%.
`Cc1ccc(F)cc1C(=O)Nc1ccc(C(=O)N2Cc3ccccc3CCc3ccccc32)cn1` [Example 45]: in the assay on vasopressin V2, the Osmolality is recorded as 979 MOsm/kg and the “Urine Volume” value was 6.6 ml/4 hrs. The same compound yielded an inhibition at 1 µM in assay [1] of 54%.
